This passage reports Kd results from PMC12455996, “TGF-β inhibitor SB431542 suppresses SARS-CoV-2 replication through multistep inhibition” (Journal of Virology, 2025).

Molecules are shown by their SMILES.

The target of the assay is T1, SARS-CoV-2 ORF3a (Severe acute respiratory syndrome coronavirus 2, UniProt P0DTC3).
T1 construct: gene 3a
The assay can be described thus: isothermal titration calorimetry. In kind it is binding.

As a reminder, the Kd is the free concentration of one partner at which half of the binding sites on the other are occupied at equilibrium, for simple one-to-one binding. A lower Kd goes with higher affinity.

T1 sequence (P0DTC3 whole entry): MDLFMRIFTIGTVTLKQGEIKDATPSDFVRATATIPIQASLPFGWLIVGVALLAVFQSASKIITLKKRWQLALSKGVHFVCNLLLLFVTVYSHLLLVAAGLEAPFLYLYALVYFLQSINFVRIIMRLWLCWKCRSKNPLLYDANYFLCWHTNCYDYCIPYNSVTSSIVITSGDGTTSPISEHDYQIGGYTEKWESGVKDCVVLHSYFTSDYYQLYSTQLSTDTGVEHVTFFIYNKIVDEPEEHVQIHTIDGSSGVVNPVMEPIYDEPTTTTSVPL

Turning to `NC(=O)c1ccc(-c2nc(-c3ccc4c(c3)OCO4)c(-c3ccccn3)[nH]2)cc1` [SB431542], the dissociation constant Kd was found to be 220 ± 68.1 nM.
